Laboratory results: US7964531B2, “3-phenoxy-4-pyridazinol derivatives and herbicidal composition containing the same” (Mitsui Chemicals Agro, Inc., priority 2001, dated 2011)

What was measured:
Type in all cases: in vivo
[1] = test system: Cyperus esculentus L.; assay: Test Example 5: herbicidal effects, upland (soil treatment); details: after 21 days
Experimental: (§1) Upland soil was filled in 150 cm^2 pot, and seeds of barnyardgrass, Cyperus esculentus L., velvetleaf, black nightshade, tall morningglory and corn were sowed, and grown in a greenhouse. At the next day of seeding, a predetermined chemical dosage of the wettable powder prepared in accordance with Preparation example 5 was diluted with water and applied to soil surface. After 21 days from the treatment, herbicidal effects and crop injury against corn were judged according to the following judgment standard, and the results were shown in Tables 6 to 8.
(§2) Judgment Standard • 0: Growth inhibition rate; 0 to 9% • 1: Growth inhibition rate; 10 to 19% • 2: Growth inhibition rate; 20 to 29% • 3: Growth inhibition rate; 30 to 39% • 4: Growth inhibition rate; 40 to 49% • 5: Growth inhibition rate; 50 to 59% • 6: Growth inhibition rate; 60 to 69% • 7: Growth inhibition rate; 70 to 79% • 8: Growth inhibition rate; 80 to 89% • 9: Growth inhibition rate; 90 to 98% • 10: Growth inhibition rate; 99 to 100%.

[2] = test system: barnyardgrass; assay: as above; details: after 21 days
Experimental: as §1, §2

[3] = test system: black nightshade; assay: as above; details: after 21 days
Experimental: as §1, §2

[4] = test system: tall morningglory; assay: as above; details: after 21 days
Experimental: as §1, §2

[5] = test system: velvetleaf; assay: as above; details: after 21 days
Experimental: as §1, §2

[6] = test system: corn; assay: Test Example 5: crop injury against corn (soil treatment); details: after 21 days
Experimental: as §1, §2

[7] = test system: Cyperus esculentus L.; assay: Test Example 6: herbicidal effects, upland (foliar treatment); details: after 14 days
From the text: as §2
(§3) Upland soil was filled in 150 cm^2 pot, and seeds of barnyardgrass, Cyperus esculentus L., velvetleaf, black nightshade, tall morningglory and corn were sowed, and grown in a greenhouse. After the weeds were grown with 10 to 15 cm or so, a predetermined chemical dosage of the wettable powder prepared in accordance with Preparation example 5 was diluted with water containing 0.05% of GRAMIN S and applied as a foliar treatment. After 14 days from the treatment, herbicidal effects and crop injury were judged in accordance with the judgment standard of Test example 5, and the results were shown in Tables 9 and 10. Incidentally, “-” in the table means no effective ingredient was contained.

[8] = test system: barnyardgrass; assay: as above; details: after 14 days
From the text: as §2, §3

[9] = test system: black nightshade; assay: as above; details: after 14 days
From the text: as §2, §3

[10] = test system: tall morningglory; assay: as above; details: after 14 days
From the text: as §2, §3

[11] = test system: velvetleaf; assay: as above; details: after 14 days
From the text: as §2, §3

[12] = test system: corn; assay: Test Example 6: crop injury against corn (foliar treatment); details: after 14 days
From the text: as §2, §3

Structure (SMILES): CS(=O)(=O)c1ccc(C(=O)C2C(=O)CCCC2=O)c([N+](=O)[O-])c1 [Compound F, 2-(4-mesyl-2-nitrobenzoyl)cyclohexan-1,3-dione]
- Herbicidal effects Cyperus esculentus ([1]; F alone 25 g/ha): 8 (Growth inhibition rate; 80 to 89%)
- Herbicidal effects Cyperus esculentus ([1]; F alone 50 g/ha): 9 (Growth inhibition rate; 90 to 98%)
- Herbicidal effects Cyperus esculentus ([1]; F alone 100 g/ha): 9 (Growth inhibition rate; 90 to 98%)
- Herbicidal effects Barnyard grass ([2]; F alone 25 g/ha): 4 (Growth inhibition rate; 40 to 49%)
- Herbicidal effects Barnyard grass ([2]; F alone 50 g/ha): 8 (Growth inhibition rate; 80 to 89%)
- Herbicidal effects Barnyard grass ([2]; F alone 100 g/ha): 9 (Growth inhibition rate; 90 to 98%)
- Herbicidal effects Black Nightshade ([3]; F alone 25 g/ha): 6 (Growth inhibition rate; 60 to 69%)
- Herbicidal effects Black Nightshade ([3]; F alone 50 g/ha): 3 (Growth inhibition rate; 30 to 39%)
- Herbicidal effects Black Nightshade ([3]; F alone 100 g/ha): 8 (Growth inhibition rate; 80 to 89%)
- Herbicidal effects Tall Morningglory ([4]; F alone 25 g/ha): 2 (Growth inhibition rate; 20 to 29%)
- Herbicidal effects Tall Morningglory ([4]; F alone 50 g/ha): 5 (Growth inhibition rate; 50 to 59%)
- Herbicidal effects Tall Morningglory ([4]; F alone 100 g/ha): 8 (Growth inhibition rate; 80 to 89%)
- Herbicidal effects Velvetleaf ([5]; F alone 25 g/ha): 9 (Growth inhibition rate; 90 to 98%)
- Herbicidal effects Velvetleaf ([5]; F alone 50 g/ha): 10 (Growth inhibition rate; 99 to 100%)
- Herbicidal effects Velvetleaf ([5]; F alone 100 g/ha): 10 (Growth inhibition rate; 99 to 100%)
- Crop ijury against corn ([6]; F alone 25 g/ha): 0 (Growth inhibition rate; 0 to 9%)
- Crop ijury against corn ([6]; F alone 50 g/ha): 0 (Growth inhibition rate; 0 to 9%)
- Crop ijury against corn ([6]; F alone 100 g/ha): 0 (Growth inhibition rate; 0 to 9%)
- Herbicidal effects Cyperus esculentus ([7]; F alone 25 g/ha): 4 (Growth inhibition rate; 40 to 49%)
- Herbicidal effects Cyperus esculentus ([7]; F alone 50 g/ha): 5 (Growth inhibition rate; 50 to 59%)
- Herbicidal effects Cyperus esculentus ([7]; F alone 100 g/ha): 6 (Growth inhibition rate; 60 to 69%)
- Herbicidal effects Barnyard grass ([8]; F alone 25 g/ha): 0 (Growth inhibition rate; 0 to 9%)
- Herbicidal effects Barnyard grass ([8]; F alone 50 g/ha): 0 (Growth inhibition rate; 0 to 9%)
- Herbicidal effects Barnyard grass ([8]; F alone 100 g/ha): 2 (Growth inhibition rate; 20 to 29%)
- Herbicidal effects Black Nightshade ([9]; F alone 25 g/ha): 7 (Growth inhibition rate; 70 to 79%)
- Herbicidal effects Black Nightshade ([9]; F alone 50 g/ha): 10 (Growth inhibition rate; 99 to 100%)
- Herbicidal effects Black Nightshade ([9]; F alone 100 g/ha): 9 (Growth inhibition rate; 90 to 98%)
- Herbicidal effects Tall Morningglory ([10]; F alone 25 g/ha): 2 (Growth inhibition rate; 20 to 29%)
- Herbicidal effects Tall Morningglory ([10]; F alone 50 g/ha): 5 (Growth inhibition rate; 50 to 59%)
- Herbicidal effects Tall Morningglory ([10]; F alone 100 g/ha): 9 (Growth inhibition rate; 90 to 98%)
- Herbicidal effects Velvetleaf ([11]; F alone 25 g/ha): 9 (Growth inhibition rate; 90 to 98%)
- Herbicidal effects Velvetleaf ([11]; F alone 50 g/ha): 10 (Growth inhibition rate; 99 to 100%)
- Herbicidal effects Velvetleaf ([11]; F alone 100 g/ha): 10 (Growth inhibition rate; 99 to 100%)
- Crop injury against corn ([12]; F alone 25 g/ha): 0 (Growth inhibition rate; 0 to 9%)
- Crop injury against corn ([12]; F alone 50 g/ha): 0 (Growth inhibition rate; 0 to 9%)
- Crop injury against corn ([12]; F alone 100 g/ha): 0 (Growth inhibition rate; 0 to 9%)
